Experimental data from EPA's ToxValDB 9.5 (doi:10.2903/j.efsa.2009.258r).

Key:
Daphnia magna = details: chronic/long-term; duration: 21 days; reproduction
Bibionidae = details: chronic/long-term; duration: 28 days; reproduction
Pimephales promelas = details: chronic/long-term; duration: 28 days; growth
Folsomia candida = details: chronic/long-term; duration: 28 days
Oryctolagus sp. = details: reproduction developmental; food consumption
Canidae = details: chronic; duration: 1 years; oral; Dog Other; clinical chemistry
Apis mellifera = details: acute; oral; unspecified; mortality
Tagia sp. = details: acute; duration: 14 days; mortality
Aphidius rhopalosiphi = experiment: LR50; higher = less toxic; details: not reported; mortality

SMILES: O=C(Cc1ccccc1)N/C(=N\OCC1CC1)c1c(C(F)(F)F)ccc(F)c1F [Cyflufenamid]
- NOEC (Daphnia magna): 0.0406 mg/L
- NOEC (Bibionidae): 1 mg/L
- NOEC (Pimephales promelas): 0.024 mg/L
- NOEC (Folsomia candida): > 0.0178 mg/kg
- NOAEL (Oryctolagus sp.): 5 mg/kg-day
- NOAEL (Canidae): 4.1 mg/kg-day
- LD50 (Apis mellifera): > 100 µg/piece
- LC50 (Tagia sp.): > 500 mg/kg
- LD50 (Rattus norvegicus; acute, oral, mortality): > 5000 mg/kg-day
- NOAEL (Rattus norvegicus; chronic, duration: 2 years, F, histopathology: nonneoplastic): 4.4 mg/kg-day
- NOAEL (Rattus norvegicus; chronic, duration: 2 years, M, histopathology: nonneoplastic): 4.4 mg/kg-day
- NOEC (Rattus norvegicus; reproduction developmental, mortality): 800 mg/kg-day
- NOAEL (Rattus norvegicus; reproduction developmental, reproduction): 57 mg/kg-day
- LC50 (Colinus virginianus; acute, oral, diet, mortality): > 743 mg/kg-day
- LD50 (Colinus virginianus; acute, oral, mortality): > 2000 mg/kg-day
- NOEC (Colinus virginianus; reproduction developmental): 98 mg/kg-day
- LR50 (Aphidius rhopalosiphi): 50 g/ha
